Key:
HEK293 cells proteome = test: Tandem-Mass-Tagging global (whole) proteomics in HEK293 cells; type: cell-based, human; settings: 10 nM
Method: For unbiased degradation profiling of compounds at the proteome level, HEK293 cells were seeded onto 10 cm plates at a density of 2–2.5 × 10^6 cells per plate. […] After treatment, cells were washed twice with PBS (Gibco), collected in Lobinding tubes (Merck) and lysed in RIPA buffer supplemented with Protease (Roche) and Phosphatase (Roche) inhibitors as previously described for 20 min on ice. Lysates were cleared via centrifugation and protein concentrations were determined by using Pierce BCA assay (Thermo Scientific). Similarly, brain and liver tissues from control and KH1 (24) treated mice were lysed as described above. One hundred and fifty micrograms of protein from tissues or cells for each condition was aliquoted into LoBind tubes (Eppendorf) and the STRAP (Protifi) protocol was followed according to manufacturers’ instructions with slight modifications. Briefly, liquid protein samples mixed with 2× Lysis buffer (10%SDS, 100 mM TEAB pH 8.5), protein was reduced with 5 mM DTT final concentration at 55 °C for 15 min, alkylated (final concentration 20 mM IAA or CAA) at room temperature for 10 min and then acidified (12% phosphoric acid). Protein was then trapped into S-trap columns and washed with S-trap binding/wash buffer (100 mM TEAB in 90% methanol) via centrifugation at 4000 × g for 30 s. Cleaned proteins then went through tryptic digestion (Trypsin (Thermo Scientific) in 50 mM TEAB) overnight at 37 °C or 2 h at 47 °C. Digested peptides were sequentially eluted in 80 µL of 50 mM TEAB (Sigma–Aldrich), 0.2% formic acid (Sigma–Aldrich) and 50% acetonitrile (Sigma–Aldrich). Elutions were pooled and dried down. Dried and cleaned peptides were reconstituted in 110 µL of 100 mM TEAB. TMT-16-plex reagent (Thermo Scientific) was brought into room temperature and reconstituted in 40 µL of anhydrous acetonitrile. TMT reagent solution was transferred to the peptides and incubated on thermoshaker (Eppendorf) at 400 rpm at room temperature for 1 h in the dark. Peptides were quenched by the addition of 8 µL of 5% Hydroxylamine for 1 h at room temperature. TMT-labelled peptides were pooled together and dried down in the speedVac for downstream processing. […]
The dried peptides were reconstituted in 0.1% formic acid and analyzed on an Orbitrap Ascend mass spectrometer coupled to a Thermo Fisher Scientific Vanquish Neo UHPLC. […] The precursor ions for MS2 were isolated using a Quadrupole mass filter at a 0.7 Da isolation width, fragmented using a normalised 30% HCD of ion routing multipole and analyzed using ion trap. The top 10 MS2 fragment ions in a subsequent scan were isolated and fragmented using HCD at a 55% normalised collision energy and analyzed using an Orbitrap mass analyser at a 60,000 resolution, in the scan range of 100–500 m/z. […]

[1] = test system: HEK293 cells phosphoproteome; test: Phosphoproteomics in HEK293 cells; type: cell-based, human; set-up: scale not given here; settings: vs DMSO; phosphosite abundance difference; MOESM9
Method: IMAC beads were prepared from Ni-NTA (nitrilotriacetic acid) superflow agarose beads. The nickel was stripped with 100 mM EDTA and incubated in an aqueous solution of 10 mM iron (III) chloride (FeCl3). Dried peptide fractions were reconstituted to a concentration of 0.5 μg/μL in 80% ACN/0.1% TFA. Peptide mixtures were enriched for phosphorylated peptides with 5 μL IMAC beads for 30 min with end-to-end rotation.
Enriched IMAC beads were loaded on Empore C18 silica-packed stage tips. Stage tips were equilibrated with acetonitrile followed by 50% ACN/0.1% FA then 1% FA. The beads with enriched peptides were loaded onto C18 stage tips and washed with 80% ACN/0.1% TFA. Phosphorylated peptides were eluted from IMAC beads with 500 mM dibasic sodium phosphate, pH 7.0. These peptides were washed with 1% FA before elution using 50% acetonitrile in 0.1% FA. The peptides were then dried by SpeedVac and stored at −20 °C until mass spectrometry analysis. The dried phosphopeptides were reconstituted in 0.1% formic acid and analyzed on an Orbitrap Ascend mass spectrometer coupled to a Thermo Fisher Scientific Vanquish Neo UHPLC. […] The total run time was set to 155 min. A survey full scan MS (from m/z 350–1500) was acquired in the Orbitrap at a resolution of 120,000 at 200 m/z. The most intense ions with charge state ≥2 were isolated and fragmented using higher collision dissociation (HCD) fragmentation, with 30% normalised collision energy, and detected at a mass resolution of 50,000 at 200 m/z. The isolation window was set at 1.6. The phosphoproteomics raw data were searched using SEQUEST HT search engines with Proteome Discoverer 3.0 (Thermo Fisher Scientific). The following parameters were used for searches: Precursor mass tolerance 10 ppm, fragment mass tolerance 0.02, enzyme: trypsin, […], fixed modification: carbamidomethylation of cysteine residues and TMT of lysine and N-terminal, dynamic modification: oxidation of methionine and phosphorylation of serine, threonine and tyrosine. The data were filtered for 1% PSM and peptide level. A two-tailed t-test with 250 randomisations was performed in Perseus software (v1.6.15.0) to assess statistical significance between groups. The resulting data were visualised as a volcano plot using GraphPad Prism (v10.1.2).

Cn1nc(N2CCC(=O)NC2=O)c2ccc(CN3CCN(Cc4ccc(-c5cn(-c6ccc(-c7cn8nccc(C(=O)Nc9cnccc9N9CCOCC9)c8n7)cc6)nn5)nc4)CC3)cc21 [compound 24]
proteome-wide selectivity (HEK293 cells proteome; 4 and 24 h, vs DMSO and negative control 27): consistent proteome-wide selectivity for GSK3α and GSK3β | proteome-wide selectivity (HEK293 cells proteome; 2 h, vs DMSO and negative control): exquisite selectivity for GSK3 paralogs | β-catenin abundance, log2 fold change (HEK293 cells proteome; 4 h, p < 0.0005): +0.63 | β-catenin abundance, log2 fold change (HEK293 cells proteome; 24 h, p < 0.005): +0.89 | Difference, Q5PRF9 1xPhospho [S592(100)] SAMD4B [1]: 0.2452 | Difference, Q8NEM7 1xPhospho [S437(100)] SUPT20H [1]: 0.1561 | Difference, Q96KQ7 1xPhospho [S140(100)] EHMT2 [1]: 0.2159 | Difference, Q15398 1xPhospho [S725(100)] DLGAP5 [1]: -0.5208 | Difference, Q15911 1xPhospho [S426(100)] ZFHX3 [1]: -0.09567
